Test results published in PubChem BioAssay (NCI).
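Growth conditions: 96-well plates. Treatment: test compound, 48 hours, 5 concentrations. Analysis: linear interpolation between bracketing concentrations; unreached endpoints set to highest concentration. TGI: total growth inhibition.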

Experiments:
Test in all cases: growth of human tumour cells (NCI), 48 h
MCF7 breast = test system: MCF7 breast
M14 melanoma = test system: M14 melanoma
RPMI-8226 leukemia = test system: RPMI-8226 leukemia
SF-268 CNS = test system: SF-268 CNS
MDA-N = test system: MDA-N
SK-MEL-2 melanoma = test system: SK-MEL-2 melanoma
DLD-1 colon = test system: DLD-1 colon
A498 renal = test system: A498 renal
NCI-H460 lung = test system: NCI-H460 lung
HS 578T breast = test system: HS 578T breast
CAKI-1 renal = test system: CAKI-1 renal
KM20L2 colon = test system: KM20L2 colon
786-0 renal = test system: 786-0 renal
RXF 393 renal = test system: RXF 393 renal
NCI-H226 lung = test system: NCI-H226 lung
SF-539 CNS = test system: SF-539 CNS
UO-31 renal = test system: UO-31 renal
HCT-15 colon = test system: HCT-15 colon
NCI/ADR-RES ovarian = test system: NCI/ADR-RES ovarian
UACC-62 melanoma = test system: UACC-62 melanoma
A549 NSCLC = test system: A549 NSCLC
PC-3 prostate = test system: PC-3 prostate
LOX IMVI melanoma = test system: LOX IMVI melanoma
MDA-MB-231 breast = test system: MDA-MB-231 breast
NCI-H23 lung = test system: NCI-H23 lung
SN12C renal = test system: SN12C renal
SR leukemia = test system: SR leukemia
SNB-75 CNS = test system: SNB-75 CNS
XF 498 CNS = test system: XF 498 CNS
DMS 114 small cell lung = test system: DMS 114 small cell lung
SK-MEL-28 melanoma = test system: SK-MEL-28 melanoma
SW-620 colon = test system: SW-620 colon
OVCAR-3 ovarian = test system: OVCAR-3 ovarian
IGROV1 ovarian = test system: IGROV1 ovarian
UACC-257 melanoma = test system: UACC-257 melanoma
SK-MEL-5 melanoma = test system: SK-MEL-5 melanoma
HOP-62 NSCLC = test system: HOP-62 NSCLC
SNB-19 CNS = test system: SNB-19 CNS
K-562 leukemia = test system: K-562 leukemia
KM12 colon = test system: KM12 colon
CCRF-CEM leukemia = test system: CCRF-CEM leukemia
U251 CNS = test system: U251 CNS
MDA-MB-435 = test system: MDA-MB-435
TK-10 renal = test system: TK-10 renal
OVCAR-8 ovarian = test system: OVCAR-8 ovarian
SNB-78 CNS = test system: SNB-78 CNS
OVCAR-4 ovarian = test system: OVCAR-4 ovarian
EKVX NSCLC = test system: EKVX NSCLC
HT29 colon = test system: HT29 colon
T-47D breast = test system: T-47D breast
SK-OV-3 ovarian = test system: SK-OV-3 ovarian
OVCAR-5 ovarian = test system: OVCAR-5 ovarian
SF-295 CNS = test system: SF-295 CNS
HL-60(TB) leukemia = test system: HL-60(TB) leukemia
DU-145 prostate = test system: DU-145 prostate
BT-549 breast = test system: BT-549 breast
HOP-92 NSCLC = test system: HOP-92 NSCLC
NCI-H522 lung = test system: NCI-H522 lung
MALME-3M melanoma = test system: MALME-3M melanoma
COLO 205 colon = test system: COLO 205 colon
ACHN renal = test system: ACHN renal
HCT-116 colon = test system: HCT-116 colon
DMS 273 small cell lung = test system: DMS 273 small cell lung
MOLT-4 leukemia = test system: MOLT-4 leukemia
HCC-2998 colon = test system: HCC-2998 colon
LXFL 529 NSCLC = test system: LXFL 529 NSCLC
M19-MEL melanoma = test system: M19-MEL melanoma

SMILES: C[C@]12C=CC(=O)C=C1[C@@H](F)C[C@H]1[C@@H]3CC[C@](O)(C(=O)CO)[C@@]3(C)C[C@H](O)[C@@]12F
- TGI (MCF7 breast): > 100 µM
- TGI (M14 melanoma): > 100 µM
- TGI (RPMI-8226 leukemia): > 100 µM
- TGI (SF-268 CNS): > 100 µM
- TGI (MDA-N): > 100 µM
- TGI (SK-MEL-2 melanoma): > 100 µM
- TGI (DLD-1 colon): > 100 µM
- TGI (A498 renal): > 100 µM
- TGI (NCI-H460 lung): > 100 µM
- TGI (HS 578T breast): > 100 µM
- TGI (CAKI-1 renal): > 100 µM
- TGI (KM20L2 colon): > 100 µM
- TGI (786-0 renal): > 100 µM
- TGI (RXF 393 renal): > 100 µM
- TGI (NCI-H226 lung): > 100 µM
- TGI (SF-539 CNS): > 100 µM
- TGI (UO-31 renal): > 100 µM
- TGI (HCT-15 colon): > 100 µM
- TGI (NCI/ADR-RES ovarian): > 100 µM
- TGI (UACC-62 melanoma): > 100 µM
- TGI (A549 NSCLC): > 100 µM
- TGI (PC-3 prostate): > 100 µM
- TGI (LOX IMVI melanoma): > 100 µM
- TGI (MDA-MB-231 breast): > 100 µM
- TGI (NCI-H23 lung): > 100 µM
- TGI (SN12C renal): > 100 µM
- TGI (SR leukemia): > 100 µM
- TGI (SNB-75 CNS): > 100 µM
- TGI (XF 498 CNS): > 100 µM
- TGI (DMS 114 small cell lung): > 100 µM
- TGI (SK-MEL-28 melanoma): > 100 µM
- TGI (SW-620 colon): > 100 µM
- TGI (OVCAR-3 ovarian): > 100 µM
- TGI (IGROV1 ovarian): > 100 µM
- TGI (UACC-257 melanoma): > 100 µM
- TGI (SK-MEL-5 melanoma): > 100 µM
- TGI (HOP-62 NSCLC): > 100 µM
- TGI (SNB-19 CNS): > 100 µM
- TGI (K-562 leukemia): > 100 µM
- TGI (KM12 colon): > 100 µM
- TGI (CCRF-CEM leukemia): > 100 µM
- TGI (U251 CNS): > 100 µM
- TGI (MDA-MB-435): > 100 µM
- TGI (TK-10 renal): > 100 µM
- TGI (OVCAR-8 ovarian): > 100 µM
- TGI (SNB-78 CNS): > 100 µM
- TGI (OVCAR-4 ovarian): > 100 µM
- TGI (EKVX NSCLC): > 100 µM
- TGI (HT29 colon): > 100 µM
- TGI (T-47D breast): > 100 µM
- TGI (SK-OV-3 ovarian): > 100 µM
- TGI (OVCAR-5 ovarian): > 100 µM
- TGI (SF-295 CNS): > 100 µM
- TGI (HL-60(TB) leukemia): > 100 µM
- TGI (DU-145 prostate): > 100 µM
- TGI (BT-549 breast): > 100 µM
- TGI (HOP-92 NSCLC): > 100 µM
- TGI (NCI-H522 lung): > 100 µM
- TGI (MALME-3M melanoma): > 100 µM
- TGI (COLO 205 colon): > 100 µM
- TGI (ACHN renal): > 100 µM
- TGI (HCT-116 colon): > 100 µM
- TGI (DMS 273 small cell lung): > 100 µM
- TGI (MOLT-4 leukemia): > 100 µM
- TGI (HCC-2998 colon): > 100 µM
- TGI (LXFL 529 NSCLC): > 100 µM
- TGI (M19-MEL melanoma): > 100 µM

SMILES: COc1ccc2nccc(NCCCN3CCN(CCCNc4ccnc5ccc(OC)cc45)CC3)c2c1
- TGI (MCF7 breast): 1.37 µM
- TGI (M14 melanoma): 3.19 µM
- TGI (RPMI-8226 leukemia): 1.46 µM
- TGI (SF-268 CNS): 1.79 µM
- TGI (MDA-N): 1.52 µM
- TGI (SK-MEL-2 melanoma): 7.99 µM
- TGI (DLD-1 colon): 5.12 µM
- TGI (A498 renal): 13.5 µM
- TGI (NCI-H460 lung): 1.77 µM
- TGI (HS 578T breast): 3.27 µM
- TGI (CAKI-1 renal): 15 µM
- TGI (KM20L2 colon): 3.37 µM
- TGI (786-0 renal): 8.99 µM
- TGI (RXF 393 renal): 3.69 µM
- TGI (NCI-H226 lung): 1.37 µM
- TGI (SF-539 CNS): 0.681 µM
- TGI (UO-31 renal): 25.8 µM
- TGI (HCT-15 colon): 32.4 µM
- TGI (NCI/ADR-RES ovarian): > 100 µM
- TGI (UACC-62 melanoma): 2.08 µM
- TGI (A549 NSCLC): 6.55 µM
- TGI (PC-3 prostate): 4.15 µM
- TGI (LOX IMVI melanoma): 1.49 µM
- TGI (MDA-MB-231 breast): 4 µM
- TGI (NCI-H23 lung): 2.12 µM
- TGI (SN12C renal): 1.45 µM
- TGI (SR leukemia): > 26.2 µM
- TGI (SNB-75 CNS): 1.89 µM
- TGI (XF 498 CNS): 1.56 µM
- TGI (DMS 114 small cell lung): 1.91 µM
- TGI (SK-MEL-28 melanoma): 2.92 µM
- TGI (SW-620 colon): 1.04 µM
- TGI (OVCAR-3 ovarian): 7.73 µM
- TGI (IGROV1 ovarian): 3.69 µM
- TGI (UACC-257 melanoma): 2.62 µM
- TGI (SK-MEL-5 melanoma): 2.85 µM
- TGI (HOP-62 NSCLC): 4.4 µM
- TGI (SNB-19 CNS): 5.98 µM
- TGI (K-562 leukemia): 0.526 µM
- TGI (KM12 colon): 1.79 µM
- TGI (CCRF-CEM leukemia): > 100 µM
- TGI (U251 CNS): 1.51 µM
- TGI (MDA-MB-435): 1.65 µM
- TGI (TK-10 renal): 22 µM
- TGI (OVCAR-8 ovarian): 2.85 µM
- TGI (SNB-78 CNS): 3.47 µM
- TGI (OVCAR-4 ovarian): 2.55 µM
- TGI (EKVX NSCLC): 7.93 µM
- TGI (HT29 colon): 1.67 µM
- TGI (T-47D breast): 4.65 µM
- TGI (SK-OV-3 ovarian): 6.82 µM
- TGI (OVCAR-5 ovarian): 4.74 µM
- TGI (SF-295 CNS): 5.16 µM
- TGI (DU-145 prostate): 4.86 µM
- TGI (BT-549 breast): 11.6 µM
- TGI (HOP-92 NSCLC): 2.35 µM
- TGI (NCI-H522 lung): 0.633 µM
- TGI (MALME-3M melanoma): 1.88 µM
- TGI (COLO 205 colon): 1.24 µM
- TGI (ACHN renal): 11.4 µM
- TGI (HCT-116 colon): 2.54 µM
- TGI (DMS 273 small cell lung): 1.67 µM
- TGI (MOLT-4 leukemia): 1.16 µM
- TGI (HCC-2998 colon): 2.13 µM
- TGI (LXFL 529 NSCLC): 1.82 µM
- TGI (M19-MEL melanoma): 1.97 µM
